According to PubChem BioAssay (NCI):
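GI50 marks 50% less growth. The concentration for full growth arrest is given as TGI.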

How the values were obtained:
Test in all cases: NCI-60 cell line screen, 384-well format
786-0 renal = tested on: 786-0 renal
A498 renal = tested on: A498 renal
A549 NSCLC = tested on: A549 NSCLC
ACHN renal = tested on: ACHN renal
BT-549 breast = tested on: BT-549 breast
CAKI-1 renal = tested on: CAKI-1 renal
CCRF-CEM leukemia = tested on: CCRF-CEM leukemia
COLO 205 colon = tested on: COLO 205 colon
DU-145 prostate = tested on: DU-145 prostate
EKVX NSCLC = tested on: EKVX NSCLC
HCC-2998 colon = tested on: HCC-2998 colon
HCT-116 colon = tested on: HCT-116 colon
HCT-15 colon = tested on: HCT-15 colon
HL-60(TB) leukemia = tested on: HL-60(TB) leukemia
HOP-62 NSCLC = tested on: HOP-62 NSCLC
HOP-92 NSCLC = tested on: HOP-92 NSCLC
HS 578T breast = tested on: HS 578T breast
HT29 colon = tested on: HT29 colon
IGROV1 ovarian = tested on: IGROV1 ovarian
K-562 leukemia = tested on: K-562 leukemia
KM12 colon = tested on: KM12 colon
LOX IMVI melanoma = tested on: LOX IMVI melanoma
M14 melanoma = tested on: M14 melanoma
MALME-3M melanoma = tested on: MALME-3M melanoma
MCF7 breast = tested on: MCF7 breast
MDA-MB-231 breast = tested on: MDA-MB-231 breast
MDA-MB-435 melanoma = tested on: MDA-MB-435 melanoma
MDA-MB-468 breast = tested on: MDA-MB-468 breast
MOLT-4 leukemia = tested on: MOLT-4 leukemia
NCI-H226 lung = tested on: NCI-H226 lung
NCI-H23 lung = tested on: NCI-H23 lung
NCI-H322M lung = tested on: NCI-H322M lung
NCI-H460 NSCLC = tested on: NCI-H460 NSCLC
NCI-H522 lung = tested on: NCI-H522 lung
NCI/ADR-RES ovarian = tested on: NCI/ADR-RES ovarian
OVCAR-3 ovarian = tested on: OVCAR-3 ovarian
OVCAR-4 ovarian = tested on: OVCAR-4 ovarian
OVCAR-8 ovarian = tested on: OVCAR-8 ovarian
PC-3 prostate = tested on: PC-3 prostate
RPMI-8226 leukemia = tested on: RPMI-8226 leukemia
RXF 393 renal = tested on: RXF 393 renal
SF-268 CNS = tested on: SF-268 CNS
SF-295 CNS = tested on: SF-295 CNS
SF-539 CNS = tested on: SF-539 CNS
SK-MEL-28 melanoma = tested on: SK-MEL-28 melanoma
SK-MEL-5 melanoma = tested on: SK-MEL-5 melanoma
SK-OV-3 ovarian = tested on: SK-OV-3 ovarian
SN12C renal = tested on: SN12C renal
SNB-19 CNS = tested on: SNB-19 CNS
SNB-75 CNS = tested on: SNB-75 CNS
SR leukemia = tested on: SR leukemia
SW-620 colon = tested on: SW-620 colon
T-47D breast = tested on: T-47D breast
TK-10 renal = tested on: TK-10 renal
U251 glioblastoma = tested on: U251 glioblastoma
UACC-257 melanoma = tested on: UACC-257 melanoma
UACC-62 melanoma = tested on: UACC-62 melanoma
UO-31 renal = tested on: UO-31 renal

With `CCN(Cc1cc(Nc2nc(C)cn3c(-c4cn[nH]c4)cnc23)sn1)C(C)(C)CO` the GI50 ([…]-0 renal) was 45.7 nM, the TGI (786-0 renal) was 370 nM and the GI50 (A498 renal) was 13.2 nM. It also gave a TGI (A498 renal) of 299 nM, a GI50 (A549 NSCLC) of 42.3 nM and a TGI (A549 NSCLC) of 1450 nM. It also gave a GI50 (ACHN renal) of 33.4 nM, a TGI (ACHN renal) of 10.6 µM and a GI50 (BT-549 breast) of 11.6 nM. For the same molecule, the TGI (BT-549 breast) was 50.4 nM, the GI50 (CAKI-1 renal) was < 10 nM and the TGI (CAKI-1 renal) was 42.1 nM. For the same molecule, the GI50 (CCRF-CEM leukemia) was < 10 nM, the TGI (CCRF-CEM leukemia) was < 10 nM and the GI50 (COLO 205 colon) was < 10 nM. It also gave a TGI (COLO 205 colon) of 100 nM, a GI50 (DU-145 prostate) of 21.3 nM and a TGI (DU-145 prostate) of 1270 nM. The GI50 (EKVX NSCLC) was 32.1 nM, the TGI (EKVX NSCLC) was 1500 nM and the GI50 (HCC-2998 colon) was 99.9 nM. The TGI (HCC-2998 colon) was 362 nM, the GI50 (HCT-116 colon) was < 10 nM and the TGI (HCT-116 colon) was 1400 nM. The GI50 (HCT-15 colon) was 23.2 nM, the TGI (HCT-15 colon) was 1560 nM and the GI50 (HL-60(TB) leukemia) was < 10 nM. The TGI (HL-60(TB) leukemia) was < 10 nM, the GI50 (HOP-62 NSCLC) was 21 nM and the TGI (HOP-62 NSCLC) was 178 nM. It also gave a GI50 (HOP-92 NSCLC) of 32.3 nM, a TGI (HOP-92 NSCLC) of 178 nM and a GI50 (HS 578T breast) of 15.6 nM. It also gave a TGI (HS 578T breast) of 39 nM, a GI50 (HT29 colon) of 74.1 nM and a TGI (HT29 colon) of 490 nM. The GI50 (IGROV1 ovarian) was 15.5 nM, the TGI (IGROV1 ovarian) was 372 nM and the GI50 (K-562 leukemia) was < 10 nM. The TGI (K-562 leukemia) was < 10 nM, the GI50 (KM12 colon) was 15.4 nM and the TGI (KM12 colon) was 1040 nM. The GI50 (LOX IMVI melanoma) was 27.6 nM, the TGI (LOX IMVI melanoma) was 134 nM and the GI50 (M14 melanoma) was < 10 nM. For the same molecule, the TGI (M14 melanoma) was 142 nM, the GI50 (MALME-3M melanoma) was 26.6 nM and the TGI (MALME-3M melanoma) was 1130 nM. For the same molecule, the GI50 (MCF7 breast) was 139 nM, the TGI (MCF7 breast) was 1580 nM and the GI50 (MDA-MB-231 breast) was 30 nM. For the same molecule, the TGI (MDA-MB-231 breast) was 830 nM, the GI50 (MDA-MB-435 melanoma) was 71.2 nM and the TGI (MDA-MB-435 melanoma) was 242 nM. The GI50 (MDA-MB-468 breast) was < 10 nM, the TGI (MDA-MB-468 breast) was < 10 nM and the GI50 (MOLT-4 leukemia) was < 10 nM. The TGI (MOLT-4 leukemia) was < 10 nM, the GI50 (NCI-H226 lung) was < 10 nM and the TGI (NCI-H226 lung) was 152 nM. For the same molecule, the GI50 (NCI-H23 lung) was 40.9 nM, the TGI (NCI-H23 lung) was 274 nM and the GI50 (NCI-H322M lung) was 69.2 nM. The TGI (NCI-H322M lung) was 1660 nM, the GI50 (NCI-H460 NSCLC) was 26.1 nM and the TGI (NCI-H460 NSCLC) was 1130 nM. The GI50 (NCI-H522 lung) was < 10 nM, the TGI (NCI-H522 lung) was 64.6 nM and the GI50 (NCI/ADR-RES ovarian) was 534 nM. The TGI (NCI/ADR-RES ovarian) was 4.08 µM, the GI50 (OVCAR-3 ovarian) was 16.3 nM and the TGI (OVCAR-3 ovarian) was 204 nM. It also gave a GI50 (OVCAR-4 ovarian) of 114 nM, a TGI (OVCAR-4 ovarian) of 357 nM and a GI50 (OVCAR-8 ovarian) of 21.3 nM. The TGI (OVCAR-8 ovarian) was 188 nM, the GI50 (PC-3 prostate) was 21 nM and the TGI (PC-3 prostate) was 2000 nM. For the same molecule, the GI50 (RPMI-8226 leukemia) was 29.1 nM, the TGI (RPMI-8226 leukemia) was 123 nM and the GI50 (RXF 393 renal) was < 10 nM. The TGI (RXF 393 renal) was 133 nM, the GI50 (SF-268 CNS) was 14.8 nM and the TGI (SF-268 CNS) was 170 nM. It also gave a GI50 (SF-295 CNS) of 102 nM, a TGI (SF-295 CNS) of 319 nM and a GI50 (SF-539 CNS) of 12 nM. It also gave a TGI (SF-539 CNS) of 57.2 nM, a GI50 (SK-MEL-28 melanoma) of 169 nM and a TGI (SK-MEL-28 melanoma) of 9.72 µM. For the same molecule, the GI50 (SK-MEL-5 melanoma) was 118 nM, the TGI (SK-MEL-5 melanoma) was 537 nM and the GI50 (SK-OV-3 ovarian) was < 10 nM. For the same molecule, the TGI (SK-OV-3 ovarian) was 41.1 nM, the GI50 (SN12C renal) was 13.7 nM and the TGI (SN12C renal) was 61.3 nM. The GI50 (SNB-19 CNS) was 53.4 nM, the TGI (SNB-19 CNS) was 1070 nM and the GI50 (SNB-75 CNS) was 10 nM. For the same molecule, the TGI (SNB-75 CNS) was 36.9 nM, the GI50 (SR leukemia) was < 10 nM and the TGI (SR leukemia) was < 10 nM. For the same molecule, the GI50 (SW-620 colon) was 16.3 nM, the TGI (SW-620 colon) was 1360 nM and the GI50 (T-47D breast) was 1050 nM. It also gave a TGI (T-47D breast) of 11.4 µM, a GI50 (TK-10 renal) of 72.5 nM and a TGI (TK-10 renal) of 378 nM. It also gave a GI50 (U251 glioblastoma) of 42.5 nM, a TGI (U251 glioblastoma) of 1180 nM and a GI50 (UACC-257 melanoma) of 1070 nM. The TGI (UACC-257 melanoma) was 2310 nM, the GI50 (UACC-62 melanoma) was 18.7 nM and the TGI (UACC-62 melanoma) was 1270 nM. It also gave a GI50 (UO-31 renal) of 64.1 nM and a TGI (UO-31 renal) of 1700 nM.
